Measurements: US6737383B1, “Herbicidal oxadiazolidines” (priority 1999, dated 2004)

Experiments:
surinam grass = test: Test B pre/postemergence surinam grass; format: in vivo, Brachiaria decumbens
Outline: (§1)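 Test chemicals in a non-phytotoxic solvent mixture with surfactant were sprayed preemergence onto planted seeds and postemergence onto plants 2 to 18 cm tall (1- to 4-leaf stage). After twelve to sixteen days in a greenhouse, injury was visually rated against untreated controls from 0 (no effect) to 10 (complete control).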

crabgrass = test: Test B pre/postemergence crabgrass; format: in vivo, Digitaria sanguinalis
Outline: as §1

soybean = test: Test B pre/postemergence soybean; format: in vivo, Glycine max
Outline: as §1

cocklebur = test: Test B pre/postemergence cocklebur; format: in vivo, Xanthium strumarium
Outline: as §1

rice = test: Test B flood test rice; format: in vivo, Oryza sativa
Outline: (§2)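 Plants were grown to the 2-leaf stage before treatment with test chemical, then held in a greenhouse for twelve to sixteen days. Injury was visually rated against untreated controls on a 0–10 scale, where 0 is no effect and 10 is complete control.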

bamyardgrass = test: Test B flood test barnyardgrass; format: in vivo, Echinochloa crus-galli
Outline: as §2

sugar beet = test: Test B pre/postemergence sugar beet; format: in vivo, Beta vulgaris
Outline: as §1

giant foxtail = test: Test B pre/postemergence giant foxtail; format: in vivo, Setaria faberii
Outline: as §1

smallflower flatsedge = test: Test B flood test smallflower flatsedge; format: in vivo, Cyperus difformis
Outline: as §2

rape = test: Test B pre/postemergence rape; format: in vivo, Brassica napus
Outline: as §1

bedstraw = test: Test B pre/postemergence bedstraw; format: in vivo, Galium aparine
Outline: as §1

purple nutsedge = test: Test B pre/postemergence purple nutsedge; format: in vivo, Cyperus rotundus
Outline: as §1

blackgrass = test: Test B pre/postemergence blackgrass; format: in vivo, Alopecurus myosuroides
Outline: as §1

duck salad = test: Test B flood test duck salad; format: in vivo, Heteranthera limosa
Outline: as §2

wheat = test: Test B pre/postemergence wheat; format: in vivo, Triticum aestivum
Outline: as §1

corn = test: Test B pre/postemergence corn; format: in vivo, Zea mays
Outline: as §1

velvetleaf = test: Test B pre/postemergence velvetleaf; format: in vivo, Abutilon theophrasti
Outline: as §1

[1] = Postemergence, Rate 62 g/ha, scale 0 to 10, 0 is no effect, 10 is complete control
[2] = Postemergence, Rate 250 g/ha, scale 0 to 10, 0 no effect, 10 complete control
[3] = Preemergence, Rate 31 g/ha, visual rating, scale 0 to 10 (0 no effect, 10 complete control)
[4] = Preemergence, Rate 62 g/ha, scale 0 to 10, 0 is no effect, 10 is complete control
[5] = Preemergence, Rate 125 g/ha, scale 0 to 10 (0 no effect, 10 complete control)
[6] = Preemergence, Rate 250 g/ha, scale of 0 to 10 where 0 is no effect and 10 is complete control
[7] = Rate 31 g/ha, Postemergence, scale 0 to 10
[8] = Rate 125 g/ha, Postemergence, scale 0 to 10, 0 no effect, 10 complete control
[9] = Rate 125 g/ha, Postemergence section (flood test species), scale 0 to 10, 0 no effect, 10 complete control
[10] = Rate 500 g/ha, Postemergence section of Table B, 0 to 10 scale (0 no effect, 10 complete control)
[11] = flood test, listed under Postemergence, Rate 250 g/ha, scale 0 to 10, 0 no effect, 10 complete control

COc1ccccc1-n1c(=O)on(C(=O)N(c2ccc(F)cc2F)C(C)C)c1=O [Compound 31]
B. signalgrass plant response rating (surinam grass; [1]): 0
B. signalgrass plant response rating (surinam grass; [2]): 0
B. signalgrass plant response rating (surinam grass; [3]): 0
Plant response rating, B. signalgrass (surinam grass; [4]): 0
Plant response rating, B. signalgrass (surinam grass; [5]): 0
Plant response rating, B. signalgrass (surinam grass; [6]): 6
B. signalgrass plant response rating (surinam grass; [7]): 0
B. signalgrass plant response rating (surinam grass; [8]): 0
Crabgrass plant response rating (crabgrass; [1]): 0
Crabgrass plant response rating (crabgrass; [2]): 9
Crabgrass plant response rating (crabgrass; [3]): 2
Plant response rating, Crabgrass (crabgrass; [4]): 9
Plant response rating, Crabgrass (crabgrass; [5]): 9
Plant response rating, Crabgrass (crabgrass; [6]): 9
Crabgrass plant response rating (crabgrass; [7]): 0
Crabgrass plant response rating (crabgrass; [8]): 2
Soybean plant response rating (soybean; [1]): 1
Soybean plant response rating (soybean; [2]): 1
Soybean plant response rating (soybean; [3]): 0
Plant response rating, Soybean (soybean; [4]): 0
Plant response rating, Soybean (soybean; [5]): 0
Plant response rating, Soybean (soybean; [6]): 0
Soybean plant response rating (soybean; [8]): 1
Cocklebur plant response rating (cocklebur; [1]): 0
Cocklebur plant response rating (cocklebur; [2]): 1
Cocklebur plant response rating (cocklebur; [3]): 0
Plant response rating, Cocklebur (cocklebur; [4]): 0
Plant response rating, Cocklebur (cocklebur; [5]): 0
Plant response rating, Cocklebur (cocklebur; [6]): 0
Cocklebur plant response rating (cocklebur; [7]): 0
Cocklebur plant response rating (cocklebur; [8]): 0
Rice plant response rating (rice; [1]): 0
Rice plant response rating (rice; [9]): 0
Rice plant response rating (rice; [10]): 0
Rice plant response rating (rice; [11]): 0
Barnyardgrass plant response rating (bamyardgrass; [1]): 0
Barnyardgrass plant response rating (bamyardgrass; [9]): 0
Barnyardgrass plant response rating (bamyardgrass; [10]): 0
Barnyardgrass plant response rating (bamyardgrass; [11]): 0
Sugarbeets plant response rating (sugar beet; [1]): 0
Sugarbeets plant response rating (sugar beet; [2]): 0
Sugarbeets plant response rating (sugar beet; [3]): 0
Plant response rating, Sugarbeets (sugar beet; [4]): 0
Plant response rating, Sugarbeets (sugar beet; [5]): 0
Plant response rating, Sugarbeets (sugar beet; [6]): 0
Sugarbeets plant response rating (sugar beet; [8]): 0
Giant foxtail plant response rating (giant foxtail; [1]): 0
Giant foxtail plant response rating (giant foxtail; [2]): 4
Giant foxtail plant response rating (giant foxtail; [3]): 1
Plant response rating, Giant foxtail (giant foxtail; [4]): 6
Plant response rating, Giant foxtail (giant foxtail; [5]): 8
Plant response rating, Giant foxtail (giant foxtail; [6]): 8
Giant foxtail plant response rating (giant foxtail; [7]): 0
Giant foxtail plant response rating (giant foxtail; [8]): 0
S. Flatsedge plant response rating (smallflower flatsedge; [1]): 0
S. Flatsedge plant response rating (smallflower flatsedge; [9]): 0
S. Flatsedge plant response rating (smallflower flatsedge; [11]): 0
Rape plant response rating (rape; [1]): 0
Rape plant response rating (rape; [2]): 0
Rape plant response rating (rape; [3]): 0
Plant response rating, Rape (rape; [4]): 0
Plant response rating, Rape (rape; [5]): 0
Plant response rating, Rape (rape; [6]): 4
Rape plant response rating (rape; [7]): 0
Rape plant response rating (rape; [8]): 0
Bedstraw plant response rating (bedstraw; [1]): 0
Bedstraw plant response rating (bedstraw; [2]): 0
Bedstraw plant response rating (bedstraw; [3]): 0
Plant response rating, Bedstraw (bedstraw; [4]): 0
Plant response rating, Bedstraw (bedstraw; [5]): 0
Plant response rating, Bedstraw (bedstraw; [6]): 0
Bedstraw plant response rating (bedstraw; [7]): 0
Bedstraw plant response rating (bedstraw; [8]): 0
Nutsedge plant response rating (purple nutsedge; [1]): 0
Nutsedge plant response rating (purple nutsedge; [2]): 0
Nutsedge plant response rating (purple nutsedge; [3]): 0
Plant response rating, Nutsedge (purple nutsedge; [4]): 0
Plant response rating, Nutsedge (purple nutsedge; [5]): 0
Plant response rating, Nutsedge (purple nutsedge; [6]): 0
Nutsedge plant response rating (purple nutsedge; [7]): 0
Nutsedge plant response rating (purple nutsedge; [8]): 0
Blackgrass plant response rating (blackgrass; [1]): 0
Blackgrass plant response rating (blackgrass; [2]): 9
Blackgrass plant response rating (blackgrass; [3]): 0
Plant response rating, Blackgrass (blackgrass; [4]): 0
Plant response rating, Blackgrass (blackgrass; [5]): 2
Plant response rating, Blackgrass (blackgrass; [6]): 2
Blackgrass plant response rating (blackgrass; [7]): 0
Blackgrass plant response rating (blackgrass; [8]): 4
Ducksalad plant response rating (duck salad; [1]): 0
Ducksalad plant response rating (duck salad; [9]): 0
Ducksalad plant response rating (duck salad; [10]): 0
Ducksalad plant response rating (duck salad; [11]): 0
Wheat plant response rating (wheat; [1]): 0
Wheat plant response rating (wheat; [2]): 0
Wheat plant response rating (wheat; [3]): 0
Plant response rating, Wheat (wheat; [4]): 0
Plant response rating, Wheat (wheat; [5]): 0
Plant response rating, Wheat (wheat; [6]): 0
Wheat plant response rating (wheat; [8]): 0
Corn plant response rating (corn; [1]): 0
Corn plant response rating (corn; [2]): 0
Corn plant response rating (corn; [3]): 0
Plant response rating, Corn (corn; [4]): 0
Plant response rating, Corn (corn; [5]): 0
Plant response rating, Corn (corn; [6]): 0
Corn plant response rating (corn; [7]): 0
Corn plant response rating (corn; [8]): 0
Velvetleaf plant response rating (velvetleaf; [1]): 0
Velvetleaf plant response rating (velvetleaf; [2]): 0
Velvetleaf plant response rating (velvetleaf; [3]): 0
Plant response rating, Velvetleaf (velvetleaf; [4]): 0
Plant response rating, Velvetleaf (velvetleaf; [5]): 0
Plant response rating, Velvetleaf (velvetleaf; [6]): 0
Velvetleaf plant response rating (velvetleaf; [8]): 0
